These results are taken from patent US20250223259A1, “PROTEASE INHIBITORS FOR TREATING OR PREVENTING CORONAVIRUS INFECTION” (Merck Sharp & Dohme LLC, priority 2022, published 2025).

The structures appear in SMILES notation.

For this test, the target named is SARS2 coronavirus 3CL protease (Severe acute respiratory syndrome coronavirus 2 (2019-nCoV) (SARS-CoV-2), UniProt P0DTD1). Put plainly: SARS2 Coronavirus 3CL Protease Assay (FRET). The following applies: SARS2 3CLPro FRET assay; 5 nM enzyme, 30 min pre-incubation with compound, 15 uM peptide substrate, 4 h room temperature. The test is classed as biochemical.

Broadly, the IC50 is the concentration at which inhibition is half-maximal. Consider `COC(=O)N[C@H](C(=O)N1CC2CCC(C1C(=O)N[C@@H](CCC(C)(F)F)C(=O)C(=O)NC1CC1)C2(F)F)C(C)(C)C` (single isomer, unassigned) [Example 99, methyl ((S)-1-((1(S or R),2(S or R),5(R or S))-2-(((S)-1-(cyclopropylamino)-6,6-difluoro-1,2-dioxoheptan-3-yl)carbamoyl)-8,8-difluoro-3-azabicyclo[3.2.1]octan-3-yl)-3,3-dimethyl-1-oxobutan-2-yl)carbamate], for which the half-maximal inhibitory concentration (IC50) was found to be 100 nM. For `[2H]C([2H])([2H])NC(=O)C(=O)[C@H](CCC(C)(F)F)NC(=O)C1CC(C(F)(F)F)CCN1C(=O)[C@@H](NC(=O)OC([2H])([2H])[2H])C(C)(C)C` (single isomer, unassigned) [Example 100, methyl-d3 ((S)-1-((2(S or R),4(S or R))-2-(((S)-6,6-difluoro-1-((methyl-d3)amino)-1,2-dioxoheptan-3-yl)carbamoyl)-4-(trifluoromethyl)piperidin-1-yl)-3,3-dimethyl-1-oxobutan-2-yl)carbamate] the value was 14 nM. In the case of `CNC(=O)C(=O)[C@H](CCC(C)(F)F)NC(=O)[C@@H]1CC2(CCC2(F)F)CN1C(=O)[C@@H](NC(=O)OC)C(C)(C)C` (single isomer, unassigned) [Example 103, methyl ((S)-1-((4(S or R),7S)-7-(((S)-6,6-difluoro-1-(methylamino)-1,2-dioxoheptan-3-yl)carbamoyl)-1,1-difluoro-6-azaspiro[3.4]octan-6-yl)-3,3-dimethyl-1-oxobutan-2-yl)carbamat], the IC50 was found to be 32 nM. Next, `CNC(=O)C(=O)[C@H](CCC(C)(F)F)NC(=O)C1C2CC(F)(F)CC2CN1C(=O)[C@@H](NC(=O)OC)C(C)(C)C` (single isomer, unassigned) [Example 105, methyl ((S)-1-((1S,3aR,6aS or 1R,3aS,6aR or 1S,3aS,6aR or 1R,3aR,6aS)-1-(((S)-6,6-difluoro-1-(methylamino)-1,2-dioxoheptan-3-yl)carbamoyl)-5,5-difluorohexahydrocyclopenta[c]pyrrol-2(1H)-yl)-3,3-dimethyl-1-oxobutan-2-yl)carbamate]: 11 nM. For `COC(=O)N[C@H](C(=O)N1C[C@H]2[C@@H](C1C(=O)N[C@@H](CCC(C)(F)F)C(=O)C(=O)NC1CC1)C2(Cl)Cl)C(C)(C)C` (single isomer, unassigned) [Example 106, methyl ((S)-1-((1S,2(S or R),5R)-6,6-dichloro-2-(((S)-1-(cyclopropylamino)-6,6-difluoro-1,2-dioxoheptan-3-yl)carbamoyl)-3-azabicyclo[3.1.0]hexan-3-yl)-3,3-dimethyl-1-oxobutan-2-yl)carbamate] the value was 8 nM; for `CNC(=O)C(=O)[C@H](CCC(C)(F)F)NC(=O)C1C(C2CC2C)CCN1C(=O)[C@@H](NC(=O)OC)C(C)(C)C` (single isomer, unassigned) [Example 107, methyl ((S)-1-((2(S or R),3(S or R))-2-(((S)-6,6-difluoro-1-(methylamino)-1,2-dioxoheptan-3-yl)carbamoyl)-3-((1(S or R),2(R or S))-2-methylcyclopropyl)pyrrolidin-1-yl)-3,3-dimethyl-1-oxobutan-2-yl)carbamate], 14 nM. For `COC(=O)N[C@H](C(=O)N1CCC(C(F)F)CC1C(=O)N[C@@H](CCC(C)(F)F)C(=O)C(=O)NC1CC1)C(C)(C)C` (single isomer, unassigned) [Example 108, methyl ((S)-1-((2(S or R),4(R or S)-2-(((S)-1-(cyclopropylamino)-6,6-difluoro-1,2-dioxoheptan-3-yl)carbamoyl)-4-(difluoromethyl)piperidin-1-yl)-3,3-dimethyl-1-oxobutan-2-yl)carbamate] the value was 22 nM. On to `COC(=O)N[C@H](C(=O)N1CCC(OC(F)F)CC1C(=O)N[C@@H](CCC(C)(F)F)C(=O)C(=O)NC1CC1)C(C)(C)C` (single isomer, unassigned) [Example 109, methyl ((S)-1-((2R,4R or 2S,4S)-2-(((S)-1-(cyclopropylamino)-6,6-difluoro-1,2-dioxoheptan-3-yl)carbamoyl)-4-(difluoromethoxy)piperidin-1-yl)-3,3-dimethyl-1-oxobutan-2-yl)carbamate], for which the half-maximal inhibitory concentration (IC50) worked out at 50 nM. For `CNC(=O)C(=O)[C@H](CCC(C)(F)F)NC(=O)C1CCCC(C)N1C(=O)[C@@H](NC(=O)OC)C(C)(C)C` (single isomer, unassigned) [Example 110, methyl ((S)-1-((2S,6S or 2R,6R)-2-(((S)-6,6-difluoro-1-(methylamino)-1,2-dioxoheptan-3-yl)carbamoyl)-6-methylpiperidin-1-yl)-3,3-dimethyl-1-oxobutan-2-yl)carbamate] the value was 61 nM. As to `COC(=O)N[C@H](C(=O)N1CCC(OC(F)(F)F)CC1C(=O)N[C@@H](CCC(C)(F)F)C(=O)C(=O)NC1CC1)C(C)(C)C` (single isomer, unassigned) [Example 112, methyl ((S)-1-((2S,4S or 2R,4R)-2-(((S)-1-(cyclopropylamino)-6,6-difluoro-1,2-dioxoheptan-3-yl)carbamoyl)-4-(trifluoromethoxy)piperidin-1-yl)-3,3-dimethyl-1-oxobutan-2-yl)carbamate], the IC50 is 146 nM. Next, `CNC(=O)C(=O)[C@H](CCC(C)(F)F)NC(=O)C1CC(C(F)(F)F)CCN1C(=O)C(NC(=O)OC)C12CC(F)(C1)C2` (single isomer, unassigned) [Example 115, methyl ((R or S)-2-((2(S or R),4(R or S))-2-(((S)-6,6-difluoro-1-(methylamino)-1,2-dioxoheptan-3-yl)carbamoyl)-4-(trifluoromethyl)piperidin-1-yl)-1-(3-fluorobicyclo[1.1.1]pentan-1-yl)-2-oxoethyl)carbamate]: 35 nM; `CNC(=O)C(=O)[C@H](CCC(C)(F)F)NC(=O)[C@@H]1[C@H]2CCC[C@H]2CN1C(=O)C(NC(=O)OC)C1CC(F)(F)C1` (single isomer, unassigned) [Example 116, methyl ((S or R)-2-((1S,3aR,6aS)-1-(((S)-6,6-difluoro-1-(methylamino)-1,2-dioxoheptan-3-yl)carbamoyl)hexahydrocyclopenta[c]pyrrol-2(1H)-yl)-1-(3,3-difluorocyclobutyl)-2-oxoethyl)carbamate]: 16 nM; `CC(C)OC(=O)N[C@H](C(=O)N1CC2(CCCCC2)C[C@H]1C(=O)N[C@@H](CCC(C)(F)F)C(=O)C(=O)NC1CC1)C(C)(C)C` [Example 4, Isopropyl ((S)-1-((S)-3-(((S)-1-(cyclopropylamino)-6,6-difluoro-1,2-dioxoheptan-3-yl)carbamoyl)-2-azaspiro[4.5]decan-2-yl)-3,3-dimethyl-1-oxobutan-2-yl)carbamate]: 60 nM. Consider `CC(F)(F)CC[C@H](NC(=O)[C@@H]1CC2(CCCCC2)CN1C(=O)[C@@H](NC(=O)OC1CCCC1)C(C)(C)C)C(=O)C(=O)NC1CC1` [Example 5, Cyclopentyl ((S)-1-((S)-3-(((S)-1-(cyclopropylamino)-6,6-difluoro-1,2-dioxoheptan-3-yl)carbamoyl)-2-azaspiro[4.5]decan-2-yl)-3,3-dimethyl-1-oxobutan-2-yl)carbamate], for which the half-maximal inhibitory concentration (IC50) came to 81 nM. For `COC(=O)N[C@H](C(=O)N1C[C@H]2[C@@H]([C@H]1C(=O)N[C@@H](CCC(C)(F)F)C(=O)C(=O)NC1CC1)C2(C)C)C(C)(C)C` [Example 6, Methyl ((S)-1-((1R,2S,5S)-2-(((S)-1-(cyclopropylamino)-6,6-difluoro-1,2-dioxoheptan-3-yl)carbamoyl)-6,6-dimethyl-3-azabicyclo[3.1.0]hexan-3-yl)-3,3-dimethyl-1-oxobutan-2-yl)carbamate] the value was 17 nM. For `COC(=O)N[C@H](C(=O)N1CC2(CCCCC2)C[C@H]1C(=O)N[C@@H](CCC(C)(F)F)C(=O)C(=O)NCc1ccccc1)C(C)(C)C` [Example 7, Methyl ((S)-1-((S)-3-(((S)-1-(benzylamino)-6,6-difluoro-1,2-dioxoheptan-3-yl)carbamoyl)-2-azaspiro[4.5]decan-2-yl)-3,3-dimethyl-1-oxobutan-2-yl)carbamate] the value was 11 nM; for `CCNC(=O)C(=O)[C@H](CCC(C)(F)F)NC(=O)[C@@H]1CC2(CCCCC2)CN1C(=O)[C@@H](NC(=O)OC)C(C)(C)C` [Example 8, Methyl ((S)-1-((S)-3-(((S)-1-(ethylamino)-6,6-difluoro-1,2-dioxoheptan-3-yl)carbamoyl)-2-azaspiro[4.5]decan-2-yl)-3,3-dimethyl-1-oxobutan-2-yl)carbamate], 18 nM. On to `COC(=O)N[C@H](C(=O)N1CC2(CCCCC2)C[C@H]1C(=O)N[C@@H](CCC(C)(F)F)C(=O)C(=O)NCC(C)C)C(C)(C)C` [Example 9, Methyl ((S)-1-((S)-3-(((S)-6,6-difluoro-1-(isobutylamino)-1,2-dioxoheptan-3-yl)carbamoyl)-2-azaspiro[4.5]decan-2-yl)-3,3-dimethyl-1-oxobutan-2-yl)carbamate], for which the IC50 is 21 nM. For `COC(=O)N[C@H](C(=O)N1CC2(CCCC2)C[C@H]1C(=O)N[C@@H](CCC(C)(F)F)C(=O)C(=O)NC1CC1)C(C)(C)C` [Example 10, Methyl ((S)-1-((S)-3-(((S)-1-(cyclopropylamino)-6,6-difluoro-1,2-dioxoheptan-3-yl)carbamoyl)-2-azaspiro[4.4]nonan-2-yl)-3,3-dimethyl-1-oxobutan-2-yl)carbamate] the value was 26 nM; for `COC(=O)N[C@H](C(=O)N1CC2(CCCCC2)C[C@H]1C(=O)N[C@@H](CCC(C)(F)F)C(=O)C(=O)Nc1ccccc1C)C(C)(C)C` [Example 12, Methyl ((S)-1-((S)-3-(((S)-6,6-difluoro-1,2-dioxo-1-(o-tolylamino)heptan-3-yl)carbamoyl)-2-azaspiro[4.5]decan-2-yl)-3,3-dimethyl-1-oxobutan-2-yl)carbamate], 41 nM.
